Source: patent US20120207763A1, “PYRROLOPYRIMIDINE COMPOUNDS AND THEIR USES” (ASTEX THERAPEUTICS LIMITED, priority 2006, published 2012)

The compounds below were run against T1, JAK-3 (Homo sapiens, UniProt P52333) (assay: JAK LANCE enzymatic assay (JAK-3)). Conditions: Table A; read-out: Jak-3/ IC50.
T1 construct: GST fusion constructs of the kinase domains of both enzymes are used; GST
Type: biochemical
Text: Binding of cytokines and certain growth factors to their respective receptors trigger activation of Janus kinases, which phosphorylate members of the STAT family. Phosphorylated STAT molecules dimerize and migrate to the nucleus where they bind to DNA and initiate transcription of responsive genes. Inhibitors of pathways downstream of cytokine/growth factor receptors have therapeutic potential for several indications. An enzymatic assay for JAK-3 and JAK-2 has been developed to identify T-cell selective inhibitors. GST fusion constructs of the kinase domains of both enzymes are used and a biotinylated, tyrosine containing peptide serves as substrate. Phosphorylation of this peptide by the respective kinase is quantified with an europium-labeled anti-phosphotyrosine antibody (Eu-PT66) as energy donor and a streptavidin-allophycocyanine conjugate (SA-APC) as energy acceptor. The assay has been established in a 384 well format.
In the JAK LANCE™ assay, a biotinylated peptide is incubated together with compounds and ATP in buffer. The phosphorylation reaction starts after addition of JAK kinase. After incubation at RT the reaction is stopped with EDTA and the product detected by addition Streptavidin-Allophycocyanin and Europium-labeled antiphosphotyrosine antibody. The signal is measured using an EnVision Reader. Exc: 320 nm, Em, Donor: 615 nm and Em, Acceptor: 665 nm in time resolved fashion with a delay of […].

T1 sequence (P52333 822-1111 limits assumed): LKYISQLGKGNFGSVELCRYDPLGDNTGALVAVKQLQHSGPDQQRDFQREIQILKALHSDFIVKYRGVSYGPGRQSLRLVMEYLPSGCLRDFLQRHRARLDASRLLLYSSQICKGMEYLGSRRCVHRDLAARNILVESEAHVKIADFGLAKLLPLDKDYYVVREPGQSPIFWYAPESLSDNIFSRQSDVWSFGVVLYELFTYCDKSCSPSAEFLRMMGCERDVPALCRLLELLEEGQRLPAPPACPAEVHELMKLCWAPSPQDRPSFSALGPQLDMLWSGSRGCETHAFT

Row | Structure (SMILES) | IC50 [µM]
1 | CCC(CC)N1C(=O)Cc2cnc(Nc3cccc(OCCN4CCOCC4)c3)nc21 | ≥ 0.1
2 | O=C1Cc2cnc(Nc3ccc(C(=O)N4CCOCC4)cc3)nc2N1 | ≥ 0.1
3 | CCC(CC)N1C(=O)Cc2cnc(Nc3ccc(N4CCN(C)CC4)cn3)nc21 | ≥ 0.1
4 | CCC(CC)N1C(=O)Cc2cnc(Nc3ccc(C(=O)N4CCN(C)CC4)cc3)nc21 | ≥ 0.1
5 | CCC(CC)N1C(=O)C(C)(C)c2cnc(Nc3ccc(N4CCN(C(C)=O)CC4)cc3)nc21 | ≥ 0.1
6 | CCC(c1ccccc1)N1C(=O)Cc2cnc(Nc3ccc(N4CCN(C(C)=O)CC4)cc3)nc21 (stereo not shown) | ≥ 0.1
7 | CCC(CC)n1cnc2cnc(Nc3ccc(N4CCN(C)CC4)cc3)nc21 | ≥ 0.1
8 | CCC(CC)N1C(=O)Cc2cnc(Nc3ccc(C(=O)NCCN4CCCCC4)cc3)nc21 | ≥ 0.1
9 | CCN1C(=O)Cc2cnc(Nc3ccc(N4CCN(C)CC4)cc3)nc21 | ≥ 0.1
10 | CCC(CC)N1C(=O)Cc2cnc(Nc3ccc(-n4cncn4)cc3)nc21 | ≥ 0.1
11 | CCC(c1ccccc1)N1C(=O)Cc2cnc(Nc3cccc(OCCn4ccnc4)c3)nc21 (stereo not shown) | ≥ 0.1
12 | CCC(CC)N1C(=O)Cc2cnc(Nc3cccc(-c4nncn4C)c3)nc21 | ≥ 0.1
13 | CCC(CC)N1C(=O)Cc2cnc(Nc3cccc(N(C)CCN4CCCC4)c3)nc21 | ≥ 0.1
14 | CCC(CC)N1C(=O)Cc2cnc(Nc3ccc(N4CCN(C)CC4)nc3)nc21 | ≥ 0.1
15 | CCC(CC)N1C(=O)Cc2cnc(Nc3cc(C(=O)N4CCOCC4)ccc3F)nc21 | ≥ 0.1
16 | CN1CCN(C(=O)c2cccc(Nc3ncc4c(n3)N(C3CCCCC3)C(=O)C4)c2)CC1 | ≥ 0.1
17 | COc1ccc(C(=O)N2CCOCC2)cc1Nc1ncc2c(n1)NC(=O)C2 [drawing 19] | ≥ 0.1

Next, values leading:

Row | IC50 [µM] | Structure (SMILES)
18 | ≥ 0.1 | CCC(CC)N1C(=O)Cc2cnc(Nc3ccc(NC(=O)c4ccncc4)cc3)nc21
19 | ≥ 0.1 | O=C1Cc2cnc(Nc3ccc(N4CCOCC4)cc3)nc2N1C1CC1
20 | ≥ 0.1 | CCC(CC)N1C(=O)Cc2cnc(Nc3cc(C(=O)N4CCOCC4)ccc3OC)nc21
21 | ≥ 0.1 | CCC(CC)N1C(=O)Cc2cnc(Nc3ccc(NS(=O)(=O)c4ccc(C)cc4)cc3)nc21
22 | ≥ 0.1 | CCC(CC)N1C(=O)Cc2cnc(Nc3ccc(C(=O)NC)cc3)nc21
23 | ≥ 0.1 | CCC(CC)N1C(=O)Cc2cnc(Nc3cccc(C(=O)N4CCOCC4)c3)nc21
24 | ≥ 0.1 | CCC(CC)n1c(=O)[nH]c2cnc(Nc3ccc(N4CCN(C(C)=O)CC4)cc3)nc21
25 | ≤ 0.1 | CN1CCN(c2ccc(Nc3ncc4c(n3)N(C3CCCCC3)C(=O)C4)cc2)CC1
26 | ≥ 0.1 | CCC(CC)N1C(=O)Cc2cnc(Nc3ccc(C(=O)NC(C)C)cc3)nc21
27 | ≤ 0.1 | CCC(CC)N1C(=O)Cc2cnc(Nc3ccc(N4CCOCC4)cc3)nc21
28 | ≤ 0.1 | CCC(CC)N1C(=O)Cc2cnc(Nc3ccc(N4CCN(C)CC4)c(F)c3)nc21
29 | ≤ 0.1 | CCC(CC)N1C(=O)Cc2cnc(Nc3cccc(NC(=O)c4ccncc4)c3)nc21
30 | ≤ 0.1 | CCC(CC)n1ccc2cnc(Nc3ccc(N4CCN(C(C)=O)CC4)cc3)nc21 [drawing 51]
31 | ≤ 0.1 | CCC(CC)n1c(=O)n(C)c2cnc(Nc3ccc(N4CCN(C(C)=O)CC4)cc3)nc21
32 | ≤ 0.1 | CCC(CC)N1C(=O)Cc2cnc(Nc3ccc(OCCN4CCCC4)cc3)nc21
33 | ≤ 0.1 | CCC(CC)n1c(=O)[nH]c2cnc(Nc3ccc(N4CCN(C)CC4)cc3)nc21
34 | ≤ 0.1 | CCC(CC)n1c(=O)n(C)c2cnc(Nc3ccc(N4CCN(C)CC4)cc3)nc21

Same assay, conditions: Table B; read-out: Jak-3 Lance/ IC50 [nmol I-1]

Row | IC50 [µM] | Structure (SMILES)
35 | ≤ 0.1 | CCC(CC)n1c(CO)cc2cnc(Nc3ccc(N4CCN(C(C)=O)CC4)cc3)nc21 [drawing 119]
36 | ≥ 0.1 | CCC(CC)n1ccc2cnc(NC3CC3)nc21 [drawing 100]
37 | ≥ 0.1 | Cc1cn(C2CC2)c2nc(Nc3ccc(N4CCNCC4)cn3)ncc12 [drawing 123]
38 | ≥ 0.1 | CC(=O)N1CCN(c2ccc(Nc3ncc4c(C)cn(C5CCCCC5)c4n3)cc2)CC1 [drawing 120]
39 | ≥ 0.1 | CCC(CC)n1cc(C)c2cnc(Nc3ccc(N4CCN(C)CC4)cc3)nc21 [drawing 103]
40 | ≥ 0.1 | Cc1cn(C2CCCCC2)c2nc(Nc3ccc(N4CCNCC4)cn3)ncc12 [drawing 127]
